Test results taken from the Kinase Knowledgebase extract (Sharma et al. 2016).

Molecular target: MAPK14 (human) (UniProt Q16539)
Test: Inhibition of MAPK14 Kinase Activity
Conditions: not given

MAPK14 (human), sequence (Q16539 whole entry, looked up): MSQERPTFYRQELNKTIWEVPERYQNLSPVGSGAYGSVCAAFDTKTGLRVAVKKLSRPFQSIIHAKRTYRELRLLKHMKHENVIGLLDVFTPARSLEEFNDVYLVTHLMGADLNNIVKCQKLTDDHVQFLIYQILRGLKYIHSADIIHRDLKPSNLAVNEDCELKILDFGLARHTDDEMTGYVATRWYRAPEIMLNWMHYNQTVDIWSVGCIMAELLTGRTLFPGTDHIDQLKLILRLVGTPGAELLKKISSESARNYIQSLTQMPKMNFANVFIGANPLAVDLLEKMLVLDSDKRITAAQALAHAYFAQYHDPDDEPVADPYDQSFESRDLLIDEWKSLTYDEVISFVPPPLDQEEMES

Row | Compound | IC50
1 | CC(C)(C)c1cc(NC(=O)Nc2cccc(Cl)c2Cl)c(C(=O)N2CCN(CC(N)=O)C(=O)C2(C)C)[nH]1 | < 5 µM
2 | CN(C)CCNC(=O)CN1CCN(C(=O)c2cc(C(C)(C)C)sc2NC(=O)Nc2cccc(Cl)c2Cl)C(C)(C)C1=O | < 5 µM
3 | CN(C)CCN1CCN(C(=O)c2sc(C(C)(C)C)cc2NC(=O)Nc2cccc(Cl)c2Cl)C(C)(C)C1=O | < 5 µM
4 | COC(=O)CC1(C)C(=O)NCCN1C(=O)c1cc(C(C)(C)C)sc1NC(=O)Nc1ccc(F)c(Cl)c1Cl (stereo not drawn) | < 5 µM
5 | CC(C)(C)c1cc(C(=O)N2CCNC(=O)C2(C)CC(N)=O)c(NC(=O)Nc2cccc(Cl)c2Cl)s1 (stereo not drawn) | < 5 µM
6 | CON(C)C(=O)CN1CCN(C(=O)c2cc(C(C)(C)C)sc2NC(=O)Nc2ccc(F)cc2Cl)C(C)(C)C1=O | < 5 µM
7 | CN(C)CCN1CCN(C(=O)c2cc(C(C)(C)C)sc2NC(=O)Nc2ccc(F)cc2Cl)C(C)(C)C1=O | < 5 µM
8 | CN(C)CCN(C)C(=O)CN1CCN(C(=O)c2cc(C(C)(C)C)sc2NC(=O)Nc2cccc(Cl)c2Cl)C(C)(C)C1=O | < 5 µM
9 | CC(C)(C)c1cc(C(=O)N2CCC(=O)N(CCN)CC2)c(NC(=O)Nc2cccc(Cl)c2Cl)s1 | < 5 µM
10 | CC(C)(C)c1cc(C(=O)N2CCNC(=O)C2(C)C)c(NC(=O)Nc2cc(Cl)cc(Cl)c2)s1 | < 5 µM
11 | CCc1ccccc1NC(=O)Nc1sc(C(C)(C)C)cc1C(=O)N1CCNC(=O)CC1 | < 5 µM
12 | CN1CCN(C(=O)c2oc(C(C)(C)C)cc2NC(=O)Nc2cccc(Cl)c2Cl)CCS1(=O)=O | < 5 µM
13 | CC(C)(C)c1cc(C(=O)N2CCN(CC(=O)NCC(O)CO)C(=O)C2(C)C)c(NC(=O)Nc2cccc(Cl)c2Cl)s1 (stereo not drawn) | < 5 µM
14 | CC(C)(C)c1cc(NC(=O)Nc2ccc(F)c(F)c2Cl)c(C(=O)N2CCNC(=O)C2(C)CCO)s1 (stereo not drawn) | < 5 µM
15 | COc1ccc(Cl)c(NC(=O)Nc2cc(C(C)(C)C)sc2C(=O)N2CCNC(=O)C2(C)C)c1 | < 5 µM

Same assay, conditions: concentration not given here

Row | Compound | inhibition
16 | CC(C)(C)c1cc(C(=O)N2CCNS(=O)(=O)CC2)c(NC(=O)NC2(c3ccccc3)CC2)s1 | 26 to 50%
17 | CC(C)(C)c1cc(C(=O)N2CCNS(=O)(=O)CC2)c(NC(=O)NC(C)(C)c2ccccc2)s1 | 51 to 75%
18 | Cc1cccc(NC(=O)Nc2sc(C(C)(C)C)cc2C(=O)N2CCNC(=O)CC2)c1 | 76 to 100%
